Source: patent US10947196B2, “Beta adrenergic agonist and methods of using the same” (CURASEN THERAPEUTICS, INC., priority 2019, dated 2021)
pEC50: −log10 of the molar value. Where two headings read alike, the source gives them in different places.

Tests used:
β1-adrenergic receptor = β1-adrenergic receptor (Homo sapiens (Human), UniProt P08588); test: cAMP Gs dynamic HTRF assay, β1 expressing CHO cells; assay type: cell-based; conditions: B1-AR; for EC50 / Average pEC50 [Receptor subtype: B1-AR; Cell type: CHO-K1 (HitHunter)]: CHO-K1 (HitHunter); for EC50: read-out: Average pEC50 [Receptor subtype: B1-AR, Cell type: CHO-K1 (HitHunter)] (converted); for pEC50: CHO-K cells, read-out: Average EC50 [Receptor subtype: B1-AR, Cell type: CHO-K]
β1-adrenergic receptor, sequence (P08588 whole entry, species assumed): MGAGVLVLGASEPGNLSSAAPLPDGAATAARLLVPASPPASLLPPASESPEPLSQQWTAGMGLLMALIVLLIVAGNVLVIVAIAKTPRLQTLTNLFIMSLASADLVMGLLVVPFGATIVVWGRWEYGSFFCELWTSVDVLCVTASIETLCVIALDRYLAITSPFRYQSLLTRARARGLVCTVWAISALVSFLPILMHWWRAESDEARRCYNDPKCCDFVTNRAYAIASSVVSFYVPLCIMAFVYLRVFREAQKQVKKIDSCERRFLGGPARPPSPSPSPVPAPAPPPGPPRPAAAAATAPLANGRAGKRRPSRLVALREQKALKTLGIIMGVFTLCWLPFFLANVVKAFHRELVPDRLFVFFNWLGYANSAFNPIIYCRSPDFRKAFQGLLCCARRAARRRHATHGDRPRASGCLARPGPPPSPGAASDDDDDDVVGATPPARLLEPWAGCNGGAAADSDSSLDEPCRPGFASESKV
Procedure: (§1) cAMP homogeneous time-resolved fluorescence (HTRF). Compound efficacy was determined using the cAMP Gs dynamic HTRF assay (Cisbio, catalog #62AM4PEC) largely following the manufacturer's instructions, also detailed below.
(§2) Compound preparation. […] Standard serial dilution curves were 10-point, 5-fold dilutions starting from a highest concentration of 10 μM. […] Assay plates were centrifuged at 500×g for 10 seconds. Compounds and IBMX were prepared at 2× final dose to compensate for addition of cells.
(§3) Cell preparation. 1× stimulation buffer, washing PBS (Dulbecco's phosphate-buffered saline, −Mg −Ca; Caisson Labs, catalog #PBL01), assay PBS (Dulbecco's phosphate-buffered saline, +Mg, +Ca; Caisson Labs, catalog #PBL02) and Versene (0.02% EDTA disodium salt solution in PBS without calcium or magnesium; Caisson Labs, catalog #EDL01) were pre-warmed to 37° C. Cells expressing beta-adrenergic receptor were washed in washing PBS to remove growth medium and then released from the surface by incubating with Versene for 5-10 minutes at 37° C. Cells were harvested using assay PBS, counted manually by hemocytometer or by an automated cell counter, pelleted by centrifugation (200×g, 5 minutes) and resuspended in 37° C. 1× stimulation buffer to a final density of 1.5×10^6 cells/mL. 5 μL of the suspended cell solution (7500 cell total) were added to all wells of the 384 well assay plate, the assay plate was covered with an Axygen® plate seal (Corning PCR-SP) and incubated in a humidified 37° C. environment supplemented with 5% CO2 for 30 minutes.
(§4) HTRF reagent addition, reading and data analysis. After 30 minutes of cell stimulation with test compound, the assay plates were centrifuged at 500×g for 10 seconds, and incubation was stopped with the addition of 5 μL cAMP-D2 acceptor, diluted 1:21 in detection and lysis buffer 2 (Cisbio 62CL2FDF) was added to all cells. Subsequently, 5 μL Anti-cAMP-Eu Donor, diluted 1:21 in detection and lysis buffer 2, was added to cells. Plates were sealed and reactions gently ‘vortexed’ at 900 rpm on a Heidolph Titramax 1000 for at least 30 minutes at room temperature. Plates were centrifuged again at 500×g for 10 seconds, and HTRF was measured using a Tecan Spark plate reader at 50 flashes per well. […] Potency estimates (EC50) were derived from the four-parameter nonlinear regression of the concentration-effect curve and an estimate of relative efficacy was determined by comparing the magnitude of the test compound HTRF signal window (min−max dose) with the signal window of the full agonist control, isoproterenol.

β2 adrenergic receptor = β2 adrenergic receptor (Homo sapiens (Human), UniProt P07550); test: cAMP Gs dynamic HTRF assay, β2 expressing CHO cells; assay type: cell-based; conditions: B2-AR; for EC50: CHO-K1 (HitHunter), read-out: Average pEC50 [Receptor subtype: B2-AR, Cell type: CHO-K1 (HitHunter)] (converted); for pEC50: CHO-K cells, read-out: Average EC50 [Receptor subtype: B2-AR, Cell type: CHO-K]
β2 adrenergic receptor, sequence (P07550 whole entry, species assumed): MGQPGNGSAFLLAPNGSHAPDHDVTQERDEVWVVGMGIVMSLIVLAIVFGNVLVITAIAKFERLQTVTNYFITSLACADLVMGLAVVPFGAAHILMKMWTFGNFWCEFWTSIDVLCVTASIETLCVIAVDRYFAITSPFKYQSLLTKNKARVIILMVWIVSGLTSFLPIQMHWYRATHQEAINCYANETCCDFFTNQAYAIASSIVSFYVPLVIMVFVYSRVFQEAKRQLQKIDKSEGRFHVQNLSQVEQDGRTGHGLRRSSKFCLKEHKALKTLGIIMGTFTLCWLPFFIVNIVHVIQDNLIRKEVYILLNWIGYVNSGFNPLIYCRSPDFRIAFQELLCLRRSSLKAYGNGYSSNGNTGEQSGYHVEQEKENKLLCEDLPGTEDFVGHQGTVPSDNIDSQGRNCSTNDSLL
Procedure: as §1, §2, §3, §4

SMILES	EC50 (β2 adrenergic receptor) [µM]	pEC50 (β2 adrenergic receptor)	Average pEC50 [Receptor subtype: B1-AR; Cell type: CHO-K1 (HitHunter)] (β1-adrenergic receptor)	EC50 (β1-adrenergic receptor) [µM]	pEC50 (β1-adrenergic receptor)
CC(C)(C)NC[C@H](O)c1cccnc1C1CCC1 [Compound 03-68]	0.01 to 0.1	–	–	0.1 to 1	–
CC(C)(C)NC[C@H](O)c1cccnc1-n1nccn1 [Compound 03-74]	> 1	–	–	> 1	–
C#Cc1ncccc1[C@@H](O)CNC(C)(C)C [Compound 03-75]	> 1	–	–	> 1	–
CC(C)(C)NC[C@H](O)c1cccnc1-c1c[nH]nn1 [Compound 03-76]	0.1 to 1	–	–	0.1 to 1	–
CC(C)(C)NC[C@H](O)c1cccnc1C(C)(F)F [Compound 03-83]	0.1 to 1	–	–	> 1	–
Cc1ccc([C@@H](O)CNC(C)(C)C)c(C2=CCCC2)n1 [Compound 03-90]	> 1	–	–	> 1	–
CC(C)(C)NC[C@H](O)c1cc(C(F)(F)F)cnc1C1=CCCC1 [Compound 03-92]	> 1	–	–	> 1	–
CC(C)(C)NC[C@H](O)c1cccc(N)n1 [Compound 03-98]	> 1	–	–	> 1	–
Cc1cc([C@H](O)CNC(C)(C)C)ccn1 [Compound 03-109]	0.1 to 1	–	–	0.1 to 1	–
CC(C)(C)NC[C@H](O)c1ccnc(C#N)c1 [Compound 03-110]	> 1	–	–	> 1	–
CC(C)(C)NCC(O)c1cccnc1Cl (stereo not shown) [Compound 03-114]	0.01 to 0.1	7.00 to 8.00	–	0.1 to 1	6.00 to 7.00
CC(C)(C)NC[C@@H](O)c1cccc(C2CCOCC2)n1 [Compound 03-122]	0.1 to 1	6.00 to 7.00	–	> 1	< 6.00
CC(C)(C)NC[C@@H](O)c1ccc(C(F)(F)F)cn1 [Compound 03-125]	0.1 to 1	6.00 to 7.00	–	0.1 to 1	6.00 to 7.00
Cc1ccc([C@H](O)CNC(C)(C)C)nc1 [Compound 03-128]	> 1	< 6.00	–	> 1	< 6.00
Cc1ccccc1-c1cccc([C@H](O)CNC(C)(C)C)n1 [Compound 03-150]	–	–	–	> 1	< 6.00
CCN(CC)c1cccc([C@@H](O)CNC(C)(C)C)n1 [Compound 03-159]	–	–	–	0.01 to 0.1	7.00 to 8.00

Second part, led by results:

EC50 (β2 adrenergic receptor) [µM]	pEC50 (β2 adrenergic receptor)	Average pEC50 [Receptor subtype: B1-AR; Cell type: CHO-K1 (HitHunter)] (β1-adrenergic receptor)	SMILES	EC50 (β1-adrenergic receptor) [µM]	pEC50 (β1-adrenergic receptor)
0.1 to 1	–	–	CNC(=O)c1cccc([C@@H](O)CNC(C)(C)C)n1 [Compound 03-85]	> 1	–
0.1 to 1	–	–	CC(C)(C)NC[C@H](O)c1cccc(C2=NCCN2)n1 [Compound 03-86]	> 1	–
0.01 to 0.1	7.00 to 8.00	C (C = <7-6)	CC(C)(C)NC[C@@H](O)c1cccc(-n2cccc2)n1 [Compound 03-124]	–	6.00 to 7.00
< 0.01	> 8.00	B (B = 8-7)	CC(C)(C)NC[C@H](O)c1cccc(-c2cccc(Cl)c2)n1 [Compound 03-129]	–	7.00 to 8.00
0.01 to 0.1	7.00 to 8.00	C (C = <7-6)	CC(C)(C)NC[C@@H](O)c1cccc(-c2cccc(Cl)c2)n1 [Compound 03-130]	–	6.00 to 7.00
< 0.01	> 8.00	B (B = 8-7)	CC(C)(C)NC[C@H](O)c1cccc(-c2cccc(F)c2)n1 [Compound 03-131]	–	7.00 to 8.00
< 0.01	> 8.00	C (C = <7-6)	CC(C)(C)NC[C@H](O)c1cccc(-c2ccccc2Cl)n1 [Compound 03-133]	–	6.00 to 7.00
